# PubChem BioAssay (NCI)
#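 Five concentrations, 48 hours, 96-well plates. The concentration for full growth arrest is given as TGI.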
# Columns and labels:
# Experiment in all cases: NCI tumour cell line growth inhibition, 48 h
# A549 NSCLC = test system: A549 NSCLC
# IGROV1 ovarian = test system: IGROV1 ovarian
# MALME-3M melanoma = test system: MALME-3M melanoma
# MDA-MB-435 = test system: MDA-MB-435
# MOLT-4 leukemia = test system: MOLT-4 leukemia
# NCI-H23 lung = test system: NCI-H23 lung
# NCI/ADR-RES ovarian = test system: NCI/ADR-RES ovarian
# OVCAR-5 ovarian = test system: OVCAR-5 ovarian
# RXF 393 renal = test system: RXF 393 renal
# SK-MEL-2 melanoma = test system: SK-MEL-2 melanoma
# SK-MEL-28 melanoma = test system: SK-MEL-28 melanoma
SMILES,TGI (A549 NSCLC) [µM],TGI (IGROV1 ovarian) [µM],TGI (MALME-3M melanoma) [µM],TGI (MDA-MB-435) [µM],TGI (MOLT-4 leukemia) [µM],TGI (NCI-H23 lung) [µM],TGI (NCI/ADR-RES ovarian) [µM],TGI (OVCAR-5 ovarian) [µM],TGI (RXF 393 renal) [µM],TGI (SK-MEL-2 melanoma) [µM],TGI (SK-MEL-28 melanoma) [µM]
Cn1c(-c2ccc(C=O)o2)ccc1-c1ccc(C=O)o1,> 100,> 100,> 100,> 100,80.3,> 100,> 100,> 100,> 100,> 100,> 100
Nc1nc(Cl)cc(NCC2(CCO)CCC2)n1,> 100,> 100,> 100,> 100,> 100,> 100,> 100,> 100,> 100,> 100,> 100
O=C(Nc1ccccc1)N(CCN(Cc1ccccc1)C(=O)Nc1ccccc1)CCN(Nc1ccccc1)C(=O)Nc1ccccc1,> 100,> 100,> 100,> 100,> 100,> 100,> 100,> 100,> 100,> 100,> 100
COc1ccc(/C=C2\N=C(N3CCCC(CO)C3)NC2=O)cc1 (centres undefined),> 100,> 100,> 100,> 100,> 100,> 100,> 100,> 100,> 100,> 100,> 100
